This passage reports inhibition of growth results from ChEMBL document CHEMBL1154437, “Pyrimido[1,2-a]quinoxaline 6-oxide and phenazine 5,10-dioxide derivatives and related compounds as growth inhibitors of Trypanosoma cruzi” (Eur J Med Chem, 2008).

The structures appear in SMILES notation.

One assay deals with Trypanosoma cruzi. The experiment in a line: Antitrypanosomal activity against Trypanosoma cruzi Tulahuen 2 epimastigotes at 25 uM. The class given is functional. To be noted: read-out: GI.
Turning to `[O-][n+]1c2ccccc2[n+]([O-])c2cc(O)ccc21`, the inhibition of growth at 25 µM stood at 0%.

Take `O=[N+]([O-])c1ccc(C2=[N+]([O-])c3ccccc3N3CCCN=C23)cc1`: the inhibition of growth at 25 µM came out at 9%.

With `O=[N+]([O-])c1ccccc1C1=[N+]([O-])c2ccccc2N2CCCN=C12`, the inhibition of growth at 25 µM came to 12%. As for `COc1ccc(C2=[N+]([O-])c3ccccc3N3CCC[N+](C)=C23)cc1`, the inhibition of growth at 25 µM stood at 9%. For `C[N+]1=C2C(c3ccc([N+](=O)[O-])cc3)=[N+]([O-])c3ccccc3N2CCC1`, the inhibition of growth at 25 µM stood at 20%. Turning to `c1ccc(C2=Nc3ccccc3N3CCCN=C23)cc1`, the inhibition of growth at 25 µM amounted to 29%. On the same count and under the same terms, under `C[N+]1=C2C(c3ccccc3)=[N+]([O-])c3ccccc3N2CCC1` stands 20%; under `[O-][N+]1=C(c2ccccc2)C2=NCCCN2c2ccccc21`, 36%.

Turning to `COc1ccc(C2=[N+]([O-])c3ccccc3N3CCCN=C23)cc1`, the inhibition of growth at 25 µM was 36%. For the molecule `[O-][N+]1=C(c2ccc(Cl)cc2)C2=NCCCN2c2ccccc21`, the inhibition of growth at 25 µM is 14%. For the molecule `[O-][N+]1=C(Cc2ccccc2)C2=NCCCN2c2ccccc21`, the inhibition of growth at 25 µM came out at 13%. Turning to `CC1=[N+]([O-])c2ccccc2N2CCCN=C12`, the inhibition of growth at 25 µM is 22%. In the case of `COc1ccc(C2=[N+]([O-])c3ccccc3N3CC(C)(C)CN=C23)cc1`, the inhibition of growth at 25 µM was determined as 13%. On the same count and under the same terms, under `[O-][N+]1=C(c2ccccc2Cl)C2=NCCCN2c2ccccc21` stands 14%.

For the next assay, the system named is Trypanosoma cruzi. Description: Antitrypanosomal activity against Trypanosoma cruzi CL Brener epimastigotes at 25 uM. The class given is functional. Conditions: read-out: GI.
On to `[O-][n+]1c2ccccc2[n+]([O-])c2cc(O)ccc21`, for which the inhibition of growth at 25 µM was determined as 14%.

In a further assay the test system is Trypanosoma cruzi. The experiment in a line: Antitrypanosomal activity against Trypanosoma cruzi Y epimastigotes at 25 uM. The class given is functional. To be noted: read-out: GI.
In the case of `[O-][n+]1c2ccccc2[n+]([O-])c2cc(O)ccc21`, the inhibition of growth at 25 µM was 0%.
